Test system: Liver microsomes
Experiment: not given
Conditions: human

Compound	Stability [%]
O=C(NC12CC3CC(CC(C3)C1)C2)N[C@H]1CC[C@@H](OCc2ccc(Br)cc2)CC1	20
COc1ccc(O[C@H]2CC[C@@H](NC(=O)NC34CC5CC(CC(C5)C3)C4)CC2)cc1	14
CC(C)Oc1cc(F)c(CO[C@H]2CC[C@@H](NC(=O)NC34CC5CC(CC(C5)C3)C4)CC2)c(F)c1	29
O=C(NC12CC3CC(CC(C3)C1)C2)N[C@H]1CC[C@@H](OCc2c(F)cccc2F)CC1	19
O=C(NC12CC3CC(CC(C3)C1)C2)N[C@H]1CC[C@H](Oc2ccc(Br)cc2)CC1	23
O=C(NC12CC3CC(CC(C3)C1)C2)N[C@H]1CC[C@H](OCc2ccccc2Cl)CC1	54
O=C(NC12CC3CC(CC(C3)C1)C2)N[C@H]1CC[C@H](OCc2ccc(Br)cc2)CC1	41
O=C(NC12CC3CC(CC(C3)C1)C2)N[C@H]1CC[C@@H](OCc2c(Cl)cccc2Cl)CC1	26
O=C(NC12CC3CC(CC(C3)C1)C2)N[C@H]1CC[C@@H](Oc2ccc(F)cc2)CC1	21
O=C(NC12CC3CC(CC(C3)C1)C2)N[C@H]1CC[C@H](Oc2ccc(F)cc2)CC1	69
Cc1ccccc1CO[C@H]1CC[C@H](NC(=O)NC23CC4CC(CC(C4)C2)C3)CC1	67
O=C(NC12CC3CC(CC(C3)C1)C2)N[C@H]1CC[C@@H](Oc2cc(F)cc(F)c2)CC1	20
O=C(NC12CC3CC(CC(C3)C1)C2)N[C@H]1CC[C@@H](OCc2ccccc2Cl)CC1	25
O=C(NC12CC3CC(CC(C3)C1)C2)N[C@H]1CC[C@@H](Oc2ccc([N+](=O)[O-])cc2)CC1	15
O=C(NC12CC3CC(CC(C3)C1)C2)N[C@H]1CC[C@H](OCc2ccccc2)CC1	67
O=C(NC12CC3CC(CC(C3)C1)C2)N[C@H]1CC[C@@H](Oc2ccc(Br)cc2)CC1	35
COc1ccc(O[C@H]2CC[C@H](NC(=O)NC34CC5CC(CC(C5)C3)C4)CC2)cc1	82
O=C(NC12CC3CC(CC(C3)C1)C2)N[C@H]1CC[C@H](OCc2c(Cl)cccc2Cl)CC1	51
O=C(NC12CC3CC(CC(C3)C1)C2)N[C@H]1CC[C@H](OCc2c(F)cccc2F)CC1	43
Cc1ccccc1CO[C@H]1CC[C@@H](NC(=O)NC23CC4CC(CC(C4)C2)C3)CC1	14
CC(C)Oc1cc(F)c(CO[C@H]2CC[C@H](NC(=O)NC34CC5CC(CC(C5)C3)C4)CC2)c(F)c1	34

Test system: not listed separately
Experiment: in vivo
Conditions: dog, plasma, po, 0.3 mg/kg

Compound	AUC [µM·h]
O=C(O)CCCCCCCCCCCNC(=O)NC12CC3CC(CC(C3)C1)C2	0.0667
CCOCCOCCOCCCCCNC(=O)NC12CC3CC(CC(C3)C1)C2	0.317
